Assay results: patent US8541576B2, “Substituted pyrazolo-quinazoline derivatives as kinase inhibitors” (Nerviano Medical Sciences SRL, priority 2010, dated 2013)

Assays:
[1] = target: T1, Full-length human PIM-2 (Homo sapiens, UniProt Q9P1W9); assay: PIM-2 kinase inhibition assay: Dowex technique; type: biochemical; conditions: ATP 4 μM, enzyme 1.5 nM, Aktide 5 μM
T1 construct: Full-length human PIM-2 was expressed and purified; made in house
Procedure: Method for PIM-2 Kinase Inhibition Assay: Dowex Technique
The buffer for PIM-2 assay was composed of HEPES 50 mM, at pH 7.5, with 1 mM MgCl2, 1 mM DTT, 3 μM Na3VO4, and 0.2 mg/ml BSA
Full-length human PIM-2 was expressed and purified as described in Fedorov O, et al. (2007) PNAS 104, 51, 20523-28.
Assay Conditions (Final Concentrations):
Enzyme concentration=1.5 nM
Aktide substrate (Chemical Abstract Service Registry Number 324029-01-8)=5 μM
See above: same procedure as described for PIM-1.

[2] = test system: MV-4-11 (biphenotypic B myelomonocytic leukemia) cells; assay: In vitro cell proliferation assay (CellTiter-Glo); type: cell-based; conditions: Homo sapiens, MV4-11, antiproliferative activity, 72 hours
Procedure: In Vitro Cell Proliferation Assay:
MV-4-11 (biphenotypic B myelomonocytic leukemia) cells (1250 cells/well) were seeded in white 384 well-plates in complete medium (RPMI 1640 or EMEM plus 10% Fetal bovine serum) and treated with compounds dissolved in 0.1% DMSO, 24 h after seeding. The cells were incubated at 37° C. and 5% CO2 and after 72 hours the plates were processed using CellTiter-Glo® assay (Promega) following the manufacturer's instruction. CellTiter-Glo® is a homogenous method based on the quantification of the ATP present, an indicator of metabolically active cells. ATP is quantified using a system based on luciferase and D-luciferin resulting into light generation. The luminescent signal is proportional to the number of cells present in culture.
Briefly 25 μl/well reagent solution was added to each wells and after 5 minutes shacking microplates were red by Envision® (PerkinElmer) luminometer. The luminescent signal was proportional to the number of cells present in culture.
Inhibitory activity was evaluated comparing treated versus control data using Assay Explorer (MDL) program. IC50 was calculated using sigmoidal interpolation curve.

[3] = target: T2, Full-length human PIM-1 (Homo sapiens, UniProt P11309); assay: Biochemical assay for inhibitors of PIM-1 kinase activity (trans-phosphorylation, Dowex resin, 33P-ATP); conditions: ATP 200 μM, enzyme 1 nM, Aktide 25 μM
T2 construct: Full-length human PIM-1 was expressed and purified; made in house
T2 sequence (P11309 whole entry): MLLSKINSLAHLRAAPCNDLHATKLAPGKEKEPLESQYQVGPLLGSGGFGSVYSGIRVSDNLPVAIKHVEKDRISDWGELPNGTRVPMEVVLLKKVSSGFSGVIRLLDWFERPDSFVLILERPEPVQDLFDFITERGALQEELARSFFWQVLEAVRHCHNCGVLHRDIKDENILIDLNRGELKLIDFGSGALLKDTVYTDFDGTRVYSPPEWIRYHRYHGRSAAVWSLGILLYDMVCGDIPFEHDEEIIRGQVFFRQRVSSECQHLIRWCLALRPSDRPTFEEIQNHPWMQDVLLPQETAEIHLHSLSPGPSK
Procedure: Biochemical assay for inhibitors of PIM-1 kinase activity
The inhibitory activity of putative kinase inhibitors and the potency of selected compounds were determined using a trans-phosphorylation assay.
Specific peptide or protein substrates are trans-phosphorylated by their specific ser-thr or tyr kinase in the presence of ATP traced with ^33P-γ-ATP, and in the presence of their own optimal buffer and cofactors.
At the end of the phosphorylation reaction, more than 98% unlabeled ATP and radioactive ATP is captured by an excess of the ion exchange Dowex® resin; the resin then settles down to the bottom of the reaction plate by gravity.
Supernatant is subsequently withdrawn and transferred into a counting plate, then evaluated by β-counting.
The buffer for PIM-1 assay was composed of HEPES 50 mM, at pH 7.5, with 10 mM MgCl2, 1 mM DTT, 3 μM NaVO3, and 0.2 mg/ml BSA
Full-length human PIM-1 was expressed and purified as described in Bullock A N, et al., J. Biol. Chem. 2005, 280, 41675-82.
1.7 μM PIM1 was incubated 1 hour RT at 28° C. in the presence of 125 μM ATP
ATP concentration: 200 μM
Enzyme concentration: 1 nM
Substrate concentration Aktide (Chemical Abstract Service Registry Number 324029-01-8): 25 μM
The test mix consisted of:
1) 3× Enzyme mix (done in Kinase Buffer 3×), 5 μL/well
2) 3× substrate and ATP mix (done in ddH2O), together with ^33P-γ-ATP, 5 μL/well
3) 3× test compounds (diluted into ddH2O—3% DMSO)-5 μL/well
For IC50 determination, test compounds are received as a 1 mM solution in 100% DMSO and distributed into 96-well plates: compounds are then plated into the first column of a new 96-well plate (A1 to G1), 100 μl/well.
An automated station (Biomek FX®, Beckman) is used for serial dilutions, producing 1:3 dilutions in 100% DMSO, from line A1 to A10, for all the compounds in the column. Moreover, 4-5 copies of daughter plates are prepared by reformatting 5 μL of this first set of 100% DMSO dilution plates into 384-deep well plates: one copy of these serial dilution plates with the test compounds is thawed on the day of study, reconstituted at the working concentration (3-fold the final concentration) with 162 μL/well of water and used for IC50 determination assays. In a standard experiment, the highest concentration (3×) of compounds is typically 30 μM, while the lowest one is typically 1.5 nM.
Each 384-well plate generates at least one curve of the standard inhibitor staurosporine and reference wells (total enzyme activity vs. no enzymatic activity) for evaluation of Z′ and signal to background (S/B) ratio.
384-well plates, V bottom (test plates) are prepared with 5 μl of compound diluted as previously described (3×) and then placed onto a PlateTrak® 12 robotized station (Perkin Elmer; the robot has one 384-tip pipetting head for assay start, plus one 96-tip head for dispensing resin) together with one reservoir for Enzyme mix (3×) and one for ATP mix (3×).
Data are analyzed by an internally customized version of the “Assay Explorer®” SW package, which provides sigmoidal fitting of the ten-dilution curves for IC50 determination in secondary assay/hit confirmation routines.

T1 sequence (Q9P1W9 whole entry): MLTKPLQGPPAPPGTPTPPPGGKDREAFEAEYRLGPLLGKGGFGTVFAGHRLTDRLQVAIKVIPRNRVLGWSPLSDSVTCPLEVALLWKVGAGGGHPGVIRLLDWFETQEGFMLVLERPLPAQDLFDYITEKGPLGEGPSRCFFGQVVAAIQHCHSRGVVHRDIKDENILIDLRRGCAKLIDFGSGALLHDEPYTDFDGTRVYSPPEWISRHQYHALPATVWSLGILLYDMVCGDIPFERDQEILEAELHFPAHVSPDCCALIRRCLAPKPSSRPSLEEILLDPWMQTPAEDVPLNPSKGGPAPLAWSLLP

CC(=O)c1cc(N2CCNCC2)ccc1Oc1ncc2ccc3c(C(N)=O)nn(C)c3c2n1 [Compound 38, 8-[2-acetyl-4-(piperazin-1-yl)phenoxy]-1-methyl-1H-pyrazolo[4,3-h]quinazoline-3-carboxamide]
IC50 [1]: 527 nM
IC50 [2]: 308 nM
IC50 [3]: 20 nM

CN1CCN(c2ccc(Oc3ncc4ccc5c(C(N)=O)nn(CCO)c5c4n3)cc2)CC1 [Compound 46, 1-(2-hydroxyethyl)-8-[4-(4-methylpiperazin-1-yl)phenoxy]-1H-pyrazolo[4,3-h]quinazoline-3-carboxamide]
IC50 [1]: 1300 nM
IC50 [2]: 673 nM
IC50 [3]: 81 nM

CN(C)c1ncc2ccc3c(C(N)=O)nn(C(C)(C)C)c3c2n1 [Compound 52, 1-tert-butyl-8-(dimethylamino)-1H-pyrazolo[4,3-h]quinazoline-3-carboxamide]
IC50 [1]: 21 nM
IC50 [2]: 866 nM
IC50 [3]: 13 nM

CSc1ncc2c(n1)-c1c(c(C(N)=O)nn1C1CCNCC1)CC2 [Compound 72, 8-(methylsulfanyl)-1-(piperidin-4-yl)-4,5-dihydro-1H-pyrazolo[4,3-h]quinazoline-3-carboxamide]
IC50 [1]: 313 nM
IC50 [2]: 1780 nM
IC50 [3]: 270 nM

CSc1ncc2ccc3c(C(N)=O)nn(C)c3c2n1 [Compound 87, 1-methyl-8-(methylsulfanyl)-1H-pyrazolo[4,3-h]quinazoline-3-carboxamide]
IC50 [1]: 888 nM
IC50 [2]: 1940 nM
IC50 [3]: 123 nM

CSc1ncc2ccc3c(C(N)=O)nn(C4CCNCC4)c3c2n1 [Compound 91, 8-(methylsulfanyl)-1-(piperidin-4-yl)-1H-pyrazolo[4,3-h]quinazoline-3-carboxamide]
IC50 [1]: 46 nM
IC50 [2]: 1440 nM
IC50 [3]: 19 nM

CSc1ncc2ccc3c(C(N)=O)nn(C4CCCNC4)c3c2n1 (stereo not drawn) [Compound 92, 8-(methylsulfanyl)-1-(piperidin-3-yl)-1H-pyrazolo[4,3-h]quinazoline-3-carboxamide]
IC50 [1]: 21 nM
IC50 [2]: 147 nM
IC50 [3]: 22 nM

CSc1ncc2ccc3c(C(N)=O)nn(CC4CCCNC4)c3c2n1 (stereo not drawn) [Compound 94, 8-(methylsulfanyl)-1-(piperidin-3-ylmethyl)-1H-pyrazolo[4,3-h]quinazoline-3-carboxamide]
IC50 [1]: 311 nM
IC50 [2]: 534 nM
IC50 [3]: 80 nM

COc1ncc2ccc3c(C(N)=O)nn(C4CCNCC4)c3c2n1 [Compound 97, 8-methoxy-1-(piperidin-4-yl)-1H-pyrazolo[4,3-h]quinazoline-3-carboxamide]
IC50 [1]: 271 nM
IC50 [2]: 294 nM
IC50 [3]: 154 nM

CSc1ncc2ccc3c(C(N)=O)nn([C@@H]4C[C@H]5CC[C@@H](C4)N5)c3c2n1 [Compound 99, 1-[(3-exo)-8-azabicyclo[3.2.1]oct-3-yl]-8-(methylsulfanyl)-1H-pyrazolo[4,3-h]quinazoline-3-carboxamide]
IC50 [1]: 33 nM
IC50 [2]: 102 nM
IC50 [3]: 16 nM

CSc1ncc2ccc3c(C(N)=O)nn(C(C)CCN)c3c2n1 (stereo not drawn) [Compound 102, 1-(4-aminobutan-2-yl)-8-(methylsulfanyl)-1H-pyrazolo[4,3-h]quinazoline-3-carboxamide]
IC50 [1]: 1 nM
IC50 [2]: 35 nM
IC50 [3]: 1 nM

CSc1ncc2ccc3c(C(N)=O)nn(C4CN5CCC4CC5)c3c2n1 (stereo not drawn) [Compound 103, 1-(1-azabicyclo[2.2.2]oct-3-yl)-8-(methylsulfanyl)-1H-pyrazolo[4,3-h]quinazoline-3-carboxamide]
IC50 [1]: 28 nM
IC50 [2]: 221 nM
IC50 [3]: 15 nM

CSc1ncc2ccc3c(C(N)=O)nn(C4CCOCC4)c3c2n1 [Compound 104, 8-(methylsulfanyl)-1-(tetrahydro-2H-pyran-4-yl)-1H-pyrazolo[4,3-h]quinazoline-3-carboxamide]
IC50 [1]: 35 nM
IC50 [2]: 185 nM
IC50 [3]: 14 nM
